Source: publication PMC3690672 (European journal of nuclear medicine and molecular imaging, 2009)
Where “and” joins values, the source holds several entries; their conditions need not be identical. Identical values can stand only once. Like-named read-outs stand apart in the source and are kept apart here.

Legend:
[1] = system: P-gp at the blood-brain barrier; conditions: 15 mg/kg, rats; cited from earlier work
[2] = target: T1, P-glycoprotein (P-gp) at the blood-brain barrier (Rattus norvegicus, UniProt Q6PSM0); conditions: for Mean DV increase (of baseline DV): 3 mg/kg tariquidar; for DV (Logan) of VPM / DV of VPM (2T4K model) / K1 of VPM (2T4K model) / k2 of VPM (2T4K model) / k3 of VPM (2T4K model) / k4 of VPM (2T4K model): after 3 mg/kg tariquidar (scan 2, 120 min after), mean±SD, n=6
[3] = target: T1, P-glycoprotein (P-gp) at the blood-brain barrier; assay: in vivo
[4] = Tariquidar or elacridar concentrations in plasma and brain by LC/MS; format: in vivo; conditions: rat; for concentration at 210 min / concentration at 180 min: intravenous
[5] = system: multidrug resistance-associated proteins (MRPs), such as MRP1; conditions: cited from earlier work
[6] = system: P-gp at the blood-brain barrier; conditions: humans, 2 mg/kg, plasma 490±203 ng/ml; cited from earlier work
[7] = humans, 2 mg/kg; cited from earlier work
[8] = system: P-glycoprotein (P-gp) at the blood-brain barrier; format: in vivo, rat
[9] = target: T1, P-glycoprotein (P-gp) at the blood-brain barrier; conditions: for DV (Logan) of VPM / DV of VPM (2T4K model) / K1 of VPM (2T4K model) / k2 of VPM (2T4K model) / k3 of VPM (2T4K model) / k4 of VPM (2T4K model): whole brain, PET 120 min after, mean±SD
[10] = Hill fit of whole-brain DV vs inhibitor dose

T1 sequence (Q6PSM0 1-1272): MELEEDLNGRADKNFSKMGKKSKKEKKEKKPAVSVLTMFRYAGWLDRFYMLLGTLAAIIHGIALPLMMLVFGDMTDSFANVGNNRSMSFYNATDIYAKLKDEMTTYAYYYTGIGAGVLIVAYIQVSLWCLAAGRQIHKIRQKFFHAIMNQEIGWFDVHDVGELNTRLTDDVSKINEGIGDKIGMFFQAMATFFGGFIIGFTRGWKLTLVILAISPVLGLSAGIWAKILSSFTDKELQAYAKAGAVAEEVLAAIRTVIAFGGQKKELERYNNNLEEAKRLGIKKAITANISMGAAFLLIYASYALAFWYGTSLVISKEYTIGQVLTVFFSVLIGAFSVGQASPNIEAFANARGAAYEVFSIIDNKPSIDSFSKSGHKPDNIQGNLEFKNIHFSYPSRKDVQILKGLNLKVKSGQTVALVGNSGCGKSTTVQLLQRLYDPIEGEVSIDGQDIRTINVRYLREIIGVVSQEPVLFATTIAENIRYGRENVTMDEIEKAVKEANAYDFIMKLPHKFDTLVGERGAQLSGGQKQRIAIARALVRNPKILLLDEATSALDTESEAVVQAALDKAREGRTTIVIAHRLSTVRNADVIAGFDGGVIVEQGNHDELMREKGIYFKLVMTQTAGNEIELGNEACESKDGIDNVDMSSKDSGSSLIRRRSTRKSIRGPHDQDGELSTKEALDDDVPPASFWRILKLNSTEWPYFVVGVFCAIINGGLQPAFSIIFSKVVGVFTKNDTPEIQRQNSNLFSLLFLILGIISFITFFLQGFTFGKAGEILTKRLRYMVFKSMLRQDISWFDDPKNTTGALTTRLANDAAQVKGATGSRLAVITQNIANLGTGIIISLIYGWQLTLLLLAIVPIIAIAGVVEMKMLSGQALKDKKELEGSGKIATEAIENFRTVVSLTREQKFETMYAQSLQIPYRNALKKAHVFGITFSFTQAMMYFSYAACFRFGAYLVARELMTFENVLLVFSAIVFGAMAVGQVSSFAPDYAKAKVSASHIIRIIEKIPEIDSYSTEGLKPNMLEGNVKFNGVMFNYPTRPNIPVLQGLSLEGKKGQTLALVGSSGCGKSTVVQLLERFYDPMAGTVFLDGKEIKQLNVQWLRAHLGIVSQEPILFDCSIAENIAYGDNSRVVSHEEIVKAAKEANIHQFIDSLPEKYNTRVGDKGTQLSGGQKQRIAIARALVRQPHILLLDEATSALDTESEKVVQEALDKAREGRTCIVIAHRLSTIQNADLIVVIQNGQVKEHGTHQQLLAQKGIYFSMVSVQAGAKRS

COc1cc2c(cc1OC)CN(CCc1ccc(NC(=O)c3cc(OC)c(OC)cc3NC(=O)c3cnc4ccccc4c3)cc1)CC2 [tariquidar, Tariquidar dimesylate]
DV increase of VPM following tariquidar [1]: approximately 12 fold | Mean DV increase (of baseline DV) ([2]; cerebellum): 2.8±0.7 | DV (Logan) of VPM ([2]; cerebellum): 6.07±0.52 (0.9) ml·ml^−1 | DV of VPM (2T4K model) ([2]; cerebellum): 6.14 ml·ml^−1 and 6.14±0.54 (2.9) ml·ml^−1 | K1 of VPM (2T4K model) ([2]; cerebellum): 0.73±0.14 (11.7) ml·ml^−1·min^−1 | k2 of VPM (2T4K model) ([2]; cerebellum): 0.32±0.13 (46.6) min^−1 | k3 of VPM (2T4K model) ([2]; cerebellum): 0.30±0.08 (75.2) min^−1 | k4 of VPM (2T4K model) ([2]; cerebellum): 0.20±0.05 (26.4) min^−1 | Mean DV increase (of baseline DV) ([2]; corpus striatum): 5.9±1.1 | DV (Logan) of VPM ([2]; corpus striatum): 8.70±1.05 (0.6) ml·ml^−1 | DV of VPM (2T4K model) ([2]; corpus striatum): 8.89±1.08 (2.7) ml·ml^−1 | K1 of VPM (2T4K model) ([2]; corpus striatum): 0.79±0.13 (10.5) ml·ml^−1·min^−1 | k2 of VPM (2T4K model) ([2]; corpus striatum): 0.28±0.08 (46.6) min^−1 | k3 of VPM (2T4K model) ([2]; corpus striatum): 0.47±0.22 (53.4) min^−1 | k4 of VPM (2T4K model) ([2]; corpus striatum): 0.22±0.06 (23.1) min^−1 | Mean DV increase (of baseline DV) ([2]; entorhinal cortex): 3.0±1.4 | DV (Logan) of VPM ([2]; entorhinal cortex): 6.09±1.37 (1.1) ml·ml^−1 | DV of VPM (2T4K model) ([2]; entorhinal cortex): 6.20±1.40 (3.4) ml·ml^−1 | K1 of VPM (2T4K model) ([2]; entorhinal cortex): 0.64±0.17 (12.9) ml·ml^−1·min^−1 | k2 of VPM (2T4K model) ([2]; entorhinal cortex): 0.37±0.14 (57.5) min^−1 | k3 of VPM (2T4K model) ([2]; entorhinal cortex): 0.34±0.10 (68.9) min^−1 | k4 of VPM (2T4K model) ([2]; entorhinal cortex): 0.15±0.05 (22.5) min^−1 | Mean DV increase (of baseline DV) ([2]; frontal motor cortex): 3.1±1.1 | DV (Logan) of VPM ([2]; frontal motor cortex): 7.14±0.80 (0.9) ml·ml^−1 | DV of VPM (2T4K model) ([2]; frontal motor cortex): 7.33±0.82 (1.7) ml·ml^−1 | K1 of VPM (2T4K model) ([2]; frontal motor cortex): 0.63±0.08 (9.5) ml·ml^−1·min^−1 | k2 of VPM (2T4K model) ([2]; frontal motor cortex): 0.24±0.05 (49.6) min^−1 | k3 of VPM (2T4K model) ([2]; frontal motor cortex): 0.32±0.09 (68.7) min^−1 | k4 of VPM (2T4K model) ([2]; frontal motor cortex): 0.19±0.06 (23.8) min^−1 | Mean DV increase (of baseline DV) ([2]; hippocampus): 6.4±0.9 | DV (Logan) of VPM ([2]; hippocampus): 8.01±0.88 (0.9) ml·ml^−1 | DV of VPM (2T4K model) ([2]; hippocampus): 8.17±0.91 (2.2) ml·ml^−1 | K1 of VPM (2T4K model) ([2]; hippocampus): 0.75±0.11 (11.1) ml·ml^−1·min^−1 | k2 of VPM (2T4K model) ([2]; hippocampus): 0.32±0.08 (57.9) min^−1 | k3 of VPM (2T4K model) ([2]; hippocampus): 0.43±0.09 (69.4) min^−1 | k4 of VPM (2T4K model) ([2]; hippocampus): 0.18±0.05 (23.8) min^−1 | Mean DV increase (of baseline DV) ([2]; thalamus): 7.1±1.1 | DV (Logan) of VPM ([2]; thalamus): 9.45±1.03 (0.6) ml·ml^−1 | DV of VPM (2T4K model) ([2]; thalamus): 9.64 ml·ml^−1 and 9.64±1.06 (2.0) ml·ml^−1 | K1 of VPM (2T4K model) ([2]; thalamus): 0.93±0.12 (9.0) ml·ml^−1·min^−1 | k2 of VPM (2T4K model) ([2]; thalamus): 0.33±0.18 (48.8) min^−1 | k3 of VPM (2T4K model) ([2]; thalamus): 0.47±0.11 (64.4) min^−1 | k4 of VPM (2T4K model) ([2]; thalamus): 0.23±0.06 (23.6) min^−1 | EC50 at 180 min [3]: 0.545 ± 0.0299 µg/mL | ED50 at 120 min ([3]; Sprague-Dawley, iv): 3 ± 0.2 mg/kg | concentration at 210 min ([4]; brain, 3 mg/kg): 457 ± 37 ng/mL | concentration at 180 min ([4]; brain, 15 mg/kg): 6450 ± 3600 ng/mL | Kp at […] ([4]; brain, iv, 3 mg/kg): 1 ± 0.3 | Kp at 3 h ([4]; brain, iv, 15 mg/kg): 1.7 ± 0.9 | concentration at 210 min ([4]; plasma, 3 mg/kg): 503 ± 139 ng/mL | concentration at 180 min ([4]; plasma, 15 mg/kg): 4000 ± 390 ng/mL | Inhibition of MRPs, such as MRP1 [5]: do not inhibit | Increase of brain DVs of VPM [6]: 1.24 fold | Plasma concentration at the time of the PET scan [7]: 490 ± 203 ng/mL | Reversibility of the effect on brain TACs ([8]; 15 mg/kg, decline of TACs after peak uptake): at least partially reversible | Time of peak VPM brain uptake (maximum effect) after inhibitor injection ([8]; tariquidar 15 mg/kg or elacridar 5 mg/kg at 60 min after radiotracer injection): 30 ± 5 min and 30 min | DVmax (maximum effect) [9, 10]: 11.9±0.5 ml·ml^−1 | Hill factor n [9, 10]: 3.0±0.6 | Dose leading to complete inhibition of P-gp ([9]; according to dose-response assessment (Fig. 2)): above 6 mg/kg | Maximum increase in VPM brain distribution (DV) over baseline ([9]; at maximum effective doses, rat brain): up to 11 fold | Whole-brain DV increase (factor) as compared to baseline scans ([9]; inhibitor 3.75 mg/kg): 7.0±1.1 | Whole-brain DV increase (factor) as compared to baseline scans ([9]; inhibitor 7.5 mg/kg): 10.1±0.8 | Whole-brain DV increase (factor) as compared to baseline scans ([9]; inhibitor 15 mg/kg): 9.9±1.8 | Whole-brain DV increase (factor) as compared to baseline scans ([9]; inhibitor 30 mg/kg): 10.2±0.3 | Increase of brain DVs at the half-maximum effect plasma concentration ([9]; rat, in vivo): approximately 4 fold | DV (Logan) of VPM ([9]; inhibitor 3.75 mg/kg i.v.): 8.80±1.06 (0.9) ml·ml^−1 | DV of VPM (2T4K model) ([9]; inhibitor 3.75 mg/kg i.v.): 8.92±1.11 (2.3) ml·ml^−1 | K1 of VPM (2T4K model) ([9]; inhibitor 3.75 mg/kg i.v.): 0.81±0.16 (13.9) ml·ml^−1·min^−1 | k2 of VPM (2T4K model) ([9]; inhibitor 3.75 mg/kg i.v.): 0.18±0.05 (50.3) min^−1 | k3 of VPM (2T4K model) ([9]; inhibitor 3.75 mg/kg i.v.): 0.20±0.02 (101.3) min^−1 | k4 of VPM (2T4K model) ([9]; inhibitor 3.75 mg/kg i.v.): 0.22±0.07 (51.4) min^−1 | DV (Logan) of VPM ([9]; inhibitor 7.5 mg/kg i.v.): 12.66±0.77 (0.9) ml·ml^−1 | DV of VPM (2T4K model) ([9]; inhibitor 7.5 mg/kg i.v.): 12.93±0.79 (1.7) ml·ml^−1 | K1 of VPM (2T4K model) ([9]; inhibitor 7.5 mg/kg i.v.): 1.27±0.24 (17.4) ml·ml^−1·min^−1 | k2 of VPM (2T4K model) ([9]; inhibitor 7.5 mg/kg i.v.): 0.31±0.12 (82.5) min^−1 | k3 of VPM (2T4K model) ([9]; inhibitor 7.5 mg/kg i.v.): 0.37±0.10 (97.3) min^−1 | k4 of VPM (2T4K model) ([9]; inhibitor 7.5 mg/kg i.v.): 0.18±0.01 (23.9) min^−1 | DV (Logan) of VPM ([9]; inhibitor 15 mg/kg i.v.): 12.35±1.79 (1.4) ml·ml^−1 | DV of VPM (2T4K model) ([9]; inhibitor 15 mg/kg i.v.): 12.72±1.83 (1.8) ml·ml^−1 | K1 of VPM (2T4K model) ([9]; inhibitor 15 mg/kg i.v.): 1.02±0.02 (15.0) ml·ml^−1·min^−1 | k2 of VPM (2T4K model) ([9]; inhibitor 15 mg/kg i.v.): 0.43±0.16 (50.3) min^−1 | k3 of VPM (2T4K model) ([9]; inhibitor 15 mg/kg i.v.): 0.48±0.04 (39.2) min^−1 | k4 of VPM (2T4K model) ([9]; inhibitor 15 mg/kg i.v.): 0.12±0.02 (20.4) min^−1 | DV (Logan) of VPM ([9]; inhibitor 30 mg/kg i.v.): 12.76±0.04 (0.7) ml·ml^−1 | DV of VPM (2T4K model) ([9]; inhibitor 30 mg/kg i.v.): 13.11±0.22 (2.1) ml·ml^−1 | K1 of VPM (2T4K model) ([9]; inhibitor 30 mg/kg i.v.): 1.22±0.23 (11.2) ml·ml^−1·min^−1 | k2 of VPM (2T4K model) ([9]; inhibitor 30 mg/kg i.v.): 0.30±0.04 (54.6) min^−1 | k3 of VPM (2T4K model) ([9]; inhibitor 30 mg/kg i.v.): 0.38±0.18 (59.4) min^−1 | k4 of VPM (2T4K model) ([9]; inhibitor 30 mg/kg i.v.): 0.17±0.09 (19.8) min^−1
